In patent publication US9884828B2, “Substituted cinnolines as inhibitors of LRRK2 kinase activity” (Imago Pharmaceuticals, Inc., priority 2011, dated 2018):

What follows are compounds tested against recombinant GST-LRRK2 (wild-type) (Homo sapiens (Human), UniProt Q5S007) (assay: LRRK2 TR-FRET peptide assay (in vitro kinase activity), wild-type). Details: not given.
Assay type: biochemical
Experimental: Compounds as described herein (compounds of Formula I, e.g., compounds of the above Examples) are tested for their in vitro kinase activities using various LRRK2 (including LRRK2 G2019S mutant) assays. […] Serially diluted compounds (1% DMSO as co-solvent) were pre-incubated with recombinant GST-LRRK2 (wild-type, or G2019S mutant, Invitrogen) for 15 minutes at room temperature in 384-well Corning black plates. […] The inhibition of each well was calculated using the control and background readings for that plate. IC50 values were determined from dose-response curves using eight concentrations from the serial dilution of the test compounds.

Sequence of recombinant GST-LRRK2 (wild-type) (Q5S007 whole entry): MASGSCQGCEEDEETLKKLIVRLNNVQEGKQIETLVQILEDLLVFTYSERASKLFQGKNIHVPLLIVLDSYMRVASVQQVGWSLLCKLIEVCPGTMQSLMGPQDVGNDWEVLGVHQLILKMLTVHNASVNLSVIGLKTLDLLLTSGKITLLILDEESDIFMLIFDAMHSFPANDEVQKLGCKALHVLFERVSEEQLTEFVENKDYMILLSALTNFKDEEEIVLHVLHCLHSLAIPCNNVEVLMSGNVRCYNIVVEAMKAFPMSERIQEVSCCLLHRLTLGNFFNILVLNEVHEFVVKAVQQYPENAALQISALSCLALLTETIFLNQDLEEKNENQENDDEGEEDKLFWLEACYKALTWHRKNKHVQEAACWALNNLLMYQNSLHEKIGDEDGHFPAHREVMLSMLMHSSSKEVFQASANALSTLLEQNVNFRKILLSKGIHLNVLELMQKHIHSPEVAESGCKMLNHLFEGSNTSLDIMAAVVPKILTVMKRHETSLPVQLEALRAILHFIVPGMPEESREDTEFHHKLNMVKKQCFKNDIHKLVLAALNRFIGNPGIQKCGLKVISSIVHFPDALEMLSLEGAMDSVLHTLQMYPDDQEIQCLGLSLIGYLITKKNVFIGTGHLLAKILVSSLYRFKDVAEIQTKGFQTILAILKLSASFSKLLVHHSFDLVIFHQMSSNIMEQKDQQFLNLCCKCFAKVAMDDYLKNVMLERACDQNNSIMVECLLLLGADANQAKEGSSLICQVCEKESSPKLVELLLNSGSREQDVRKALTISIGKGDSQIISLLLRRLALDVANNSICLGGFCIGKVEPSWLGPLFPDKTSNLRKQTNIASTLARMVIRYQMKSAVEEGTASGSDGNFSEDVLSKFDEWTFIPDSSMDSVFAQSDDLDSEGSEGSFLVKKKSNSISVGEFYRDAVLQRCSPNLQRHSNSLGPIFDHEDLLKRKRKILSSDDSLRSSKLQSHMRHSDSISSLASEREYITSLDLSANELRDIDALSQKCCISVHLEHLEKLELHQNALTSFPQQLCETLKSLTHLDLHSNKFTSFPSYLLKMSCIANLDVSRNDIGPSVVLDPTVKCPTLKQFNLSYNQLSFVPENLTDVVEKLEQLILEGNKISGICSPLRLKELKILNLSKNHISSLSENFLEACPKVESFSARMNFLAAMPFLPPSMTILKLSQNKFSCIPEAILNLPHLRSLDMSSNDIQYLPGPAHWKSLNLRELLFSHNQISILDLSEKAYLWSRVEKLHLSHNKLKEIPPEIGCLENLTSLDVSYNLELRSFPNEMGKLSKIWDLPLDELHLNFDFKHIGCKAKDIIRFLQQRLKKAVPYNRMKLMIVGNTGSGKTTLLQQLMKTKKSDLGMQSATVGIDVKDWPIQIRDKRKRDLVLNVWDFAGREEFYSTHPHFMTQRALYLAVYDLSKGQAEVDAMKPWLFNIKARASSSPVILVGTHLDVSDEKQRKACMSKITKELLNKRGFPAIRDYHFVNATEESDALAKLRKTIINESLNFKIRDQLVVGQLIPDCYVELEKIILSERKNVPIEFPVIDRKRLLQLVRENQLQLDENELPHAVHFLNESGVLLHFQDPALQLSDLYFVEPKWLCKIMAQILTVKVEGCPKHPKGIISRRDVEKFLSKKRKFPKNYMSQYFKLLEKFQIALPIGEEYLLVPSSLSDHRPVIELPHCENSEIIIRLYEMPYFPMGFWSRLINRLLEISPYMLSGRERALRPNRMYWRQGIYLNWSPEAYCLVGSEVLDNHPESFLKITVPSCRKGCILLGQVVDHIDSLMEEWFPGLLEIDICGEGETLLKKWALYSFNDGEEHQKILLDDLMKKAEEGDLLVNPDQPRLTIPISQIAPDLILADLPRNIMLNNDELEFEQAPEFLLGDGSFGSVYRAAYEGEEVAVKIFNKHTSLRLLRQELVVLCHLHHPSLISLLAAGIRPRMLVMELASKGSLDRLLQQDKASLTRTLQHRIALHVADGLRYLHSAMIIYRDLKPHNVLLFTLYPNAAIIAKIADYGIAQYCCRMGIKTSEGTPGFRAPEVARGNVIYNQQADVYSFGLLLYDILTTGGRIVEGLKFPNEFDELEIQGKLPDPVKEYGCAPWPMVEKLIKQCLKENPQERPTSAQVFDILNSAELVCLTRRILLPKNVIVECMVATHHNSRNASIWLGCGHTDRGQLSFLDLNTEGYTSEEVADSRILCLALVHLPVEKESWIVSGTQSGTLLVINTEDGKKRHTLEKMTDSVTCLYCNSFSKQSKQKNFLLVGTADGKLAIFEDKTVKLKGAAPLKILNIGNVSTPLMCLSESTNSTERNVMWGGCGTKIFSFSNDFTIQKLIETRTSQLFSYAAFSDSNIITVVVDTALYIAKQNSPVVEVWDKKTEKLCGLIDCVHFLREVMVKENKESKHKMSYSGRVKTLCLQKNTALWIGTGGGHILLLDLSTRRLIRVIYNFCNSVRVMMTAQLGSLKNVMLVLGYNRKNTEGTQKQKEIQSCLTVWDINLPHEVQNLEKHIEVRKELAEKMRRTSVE

Row | Structure (SMILES) | IC50
1 | C[C@@H](Nc1c(C(N)=O)nnc2cc(-c3ccncc3)ccc12)C1CC1 [Compound 2-100, (R)-4-(1-cyclopropylethylamino)-7-(pyridin-4-yl)cinnoline-3-carboxamide] | < 6 nM

Same assay, conditions: 100 μM ATP, 100 nM biotin-LRRKtide substrate, 10 nM kinase, 60 minutes at room temperature

Row | Structure (SMILES) | IC50
2 | C[C@@H](Nc1c(C(N)=O)nnc2cc(-c3ccc(S(C)(=O)=O)cc3)ccc12)C1CC1 [Compound 2-41, (R)-4-(1-cyclopropylethylamino)-7-(4-(methylsulfonyl)phenyl)cinnoline-3-carboxamide] | < 6 nM
3 | C[C@@H](Nc1c(C#N)nnc2cc(-c3ccc(S(C)(=O)=O)cc3)ccc12)C1CC1 [Compound 2-42, (R)-4-(1-cyclopropylethylamino)-7-(4-(methylsulfonyl)phenyl)cinnoline-3-carbonitrile] | 560 nM
4 | CC(C)Nc1c(C(N)=O)nnc2cc(-c3cccc(F)c3)ccc12 [Compound 2-45, 7-(3-fluorophenyl)-4-(isopropylamino)cinnoline-3-carboxamide] | 84 nM
5 | CC(C)Nc1c(C(N)=O)nnc2cc(-c3ccccc3F)ccc12 [Compound 2-47, 7-(2-fluorophenyl)-4-(isopropylamino)cinnoline-3-carboxamide] | 210 nM
6 | CC(C)Nc1c(C(N)=O)nnc2cc(-c3ccc(N4CCOCC4)cc3)ccc12 [Compound 2-49, 4-(isopropylamino)-7-(4-morpholinophenyl)cinnoline-3-carboxamide] | 9 nM
7 | CC(C)Nc1c(C(N)=O)nnc2cc(-c3cccc(N4CCOCC4)c3)ccc12 [Compound 2-51, 4-(isopropylamino)-7-(3-morpholinophenyl)cinnoline-3-carboxamide] | 17 nM
8 | CC(C)Nc1c(C(N)=O)nnc2cc(-c3cn[nH]c3)ccc12 [Compound 2-53, 4-(isopropylamino)-7-(1H-pyrazol-4-yl)cinnoline-3-carboxamide] | 9 nM
9 | CC(C)Nc1c(C(N)=O)nnc2cc(-c3cccnc3)ccc12 [Compound 2-57, 4-(isopropylamino)-7-(pyridin-3-yl)cinnoline-3-carboxamide] | 33 nM
10 | CS(=O)(=O)c1ccc(-c2ccc3c(NC45CC6CC(CC(C6)C4)C5)c(C(N)=O)nnc3c2)cc1 [Compound 2-88, 4-(1-adamantylamino)-7-(4-(methylsulfonyl)phenyl)cinnoline-3-carboxamide] | 420 nM
11 | CS(=O)(=O)c1ccc(-c2ccc3c(NCC4CCOCC4)c(C(N)=O)nnc3c2)cc1 [Compound 2-89, 7-(4-(methylsulfonyl)phenyl)-4-((tetrahydro-2H-pyran-4-yl)methylamino)cinnoline-3-carboxamide] | 110 nM
12 | C[C@@H](Nc1c(C(N)=O)nnc2cc(-c3ccc(S(C)(=O)=O)cc3)ccc12)C1CCOCC1 [Compound 2-90, (R)-7-(4-(methylsulfonyl)phenyl)-4-(1-(tetrahydro-2H-pyran-4-yl)ethylamino)cinnoline-3-carboxamide] | 63 nM
13 | CC(C)(C)Nc1c(C(N)=O)nnc2cc(-c3ccc(S(C)(=O)=O)cc3)ccc12 [Compound 2-91, 4-(tert-butylamino)-7-(4-(methylsulfonyl)phenyl)cinnoline-3-carboxamide] | 45 nM
14 | CS(=O)(=O)c1ccc(-c2ccc3c(NCC4CC4)c(C(N)=O)nnc3c2)cc1 [Compound 2-92] | 17 nM
15 | CCNc1c(C(N)=O)nnc2cc(-c3ccc(S(C)(=O)=O)cc3)ccc12 [Compound 2-93, 4-(ethylamino)-7-(4-(methylsulfonyl)phenyl)cinnoline-3-carboxamide] | 46 nM
16 | CNc1c(C(N)=O)nnc2cc(-c3ccc(S(C)(=O)=O)cc3)ccc12 [Compound 2-94, 4-(methylamino)-7-(4-(methylsulfonyl)phenyl)cinnoline-3-carboxamide] | 120 nM
17 | C=Cc1ccc2c(NC(C)C)c(C(N)=O)nnc2c1 [Compound 2-95, 4-(isopropylamino)-7-vinylcinnoline-3-carboxamide] | 120 nM
18 | COc1ccccc1-c1ccc2c(NC(C)C)c(C(N)=O)nnc2c1 [Compound 2-96, 4-(isopropylamino)-7-(2-methoxyphenyl)cinnoline-3-carboxamide] | 350 nM
19 | COc1cccc(-c2ccc3c(NC(C)C)c(C(N)=O)nnc3c2)c1 [Compound 2-97, 4-(isopropylamino)-7-(3-methoxyphenyl)cinnoline-3-carboxamide] | 46 nM
20 | COc1ccc(F)cc1-c1ccc2c(NC(C)C)c(C(N)=O)nnc2c1 [Compound 2-98, 7-(5-fluoro-2-methoxyphenyl)-4-(isopropylamino)cinnoline-3-carboxamide] | 590 nM
21 | C=C(C)c1ccc2c(NC(C)C)c(C(N)=O)nnc2c1 [Compound 2-99, 4-(isopropylamino)-7-(prop-1-en-2-yl)cinnoline-3-carboxamide] | 76 nM
22 | C[C@@H](Nc1c(C(N)=O)nnc2cc(-c3cnn(C)c3)ccc12)C1CC1 [Compound 2-101, (R)-4-(1-cyclopropylethylamino)-7-(1-methyl-1H-pyrazol-4-yl)cinnoline-3-carboxamide] | 1 nM
23 | C[C@@H](Nc1c(C(N)=O)nnc2cc(-c3cccc(C(=O)N(C)C)c3)ccc12)C1CC1 [Compound 2-102, (R)-4-(1-cyclopropylethylamino)-7-(3-(dimethylcarbamoyl)phenyl)cinnoline-3-carboxamide] | < 6 nM
24 | COCc1ccccc1-c1ccc2c(N[C@H](C)C3CC3)c(C(N)=O)nnc2c1 [Compound 2-104, (R)-4-(1-cyclopropylethylamino)-7-(2-(methoxymethyl)phenyl)cinnoline-3-carboxamide] | 330 nM
25 | C[C@@H](Nc1c(C(N)=O)nnc2cc(-c3cncc4ccccc34)ccc12)C1CC1 [Compound 2-105, (R)-4-(1-cyclopropylethylamino)-7-(isoquinolin-4-yl)cinnoline-3-carboxamide] | 380 nM
26 | C[C@@H](Nc1c(C(N)=O)nnc2cc(-c3ccc4c(c3)CC(=O)N4)ccc12)C1CC1 [Compound 2-106, (R)-4-(1-cyclopropylethylamino)-7-(2-oxoindolin-5-yl)cinnoline-3-carboxamide] | 11 nM
27 | COc1ccc(C(=O)N(C)C)cc1-c1ccc2c(N[C@H](C)C3CC3)c(C(N)=O)nnc2c1 [Compound 2-107, (R)-4-(1-cyclopropylethylamino)-7-(5-(dimethylcarbamoyl)-2-methoxyphenyl)cinnoline-3-carboxamide] | 48 nM
28 | C[C@@H](Nc1c(C(N)=O)nnc2cc(-c3ccccc3OC(F)(F)F)ccc12)C1CC1 [Compound 2-108, (R)-4-(1-cyclopropylethylamino)-7-(2-(trifluoromethoxy)phenyl)cinnoline-3-carboxamide] | 4300 nM
29 | COc1ccc(Br)cc1-c1ccc2c(N[C@H](C)C3CC3)c(C(N)=O)nnc2c1 [Compound 2-109, (R)-7-(5-bromo-2-methoxyphenyl)-4-(1-cyclopropylethylamino)cinnoline-3-carboxamide] | 710 nM
30 | C[C@@H](Nc1c(C(N)=O)nnc2cc(-c3ccccc3)ccc12)C1CC1 [Compound 2-110, (R)-4-(1-cyclopropylethylamino)-7-phenylcinnoline-3-carboxamide] | 10 nM
31 | C[C@@H](Nc1c(C(N)=O)nnc2cc(-c3cccc(S(C)(=O)=O)c3)ccc12)C1CC1 [Compound 2-111, (R)-4-(1-cyclopropylethylamino)-7-(3-(methylsulfonyl)phenyl)cinnoline-3-carboxamide] | 1 nM
